# Measurements as given in article PMC9271048, “Probing strigolactone perception mechanisms with rationally designed small-molecule agonists stimulating germination of root parasitic weeds” (Nature Communications, 2022).
# Test system: ShHTLs (10 HTL proteins in S. hermonthica)
# Test: YLG-based competition assay on HTL proteins of S. hermonthica
# Type: biochemical, Striga hermonthica
# Settings: ShHTL5; average of 3 replicates; Supplementary Fig. 27; read-out: IC50, average
# Description: In P. aegyptiaca, 5 KAI2s have been proposed as the SL receptors for the regulation of seed germination. […] The high sequence similarity may explain the consistency of these compounds in inducing germination in both S. hermonthica and P. aegyptiaca.
# The excitation and emission wavelengths of YLG are 480 and 520 nm, respectively. We used a fluorescence spectrophotometer (CARY Eclipse) to detect the fluorescence intensity change of YLG during the enzymatic hydrolysis assay process. All the testing compounds and YLG were dissolved in DMSO and prepared as stock solutions just before use. […] The changes of fluorescence at 520 nm of each well were recorded every 1 min for 30 min. Using the reaction mixture without adding enzyme and tested compounds as the background control. After subtracting the background hydrolysis, a linear fluorescence increase in 8 min was used for further inspection. The IC50 values were determined via fitting relative inhibition percentages with the varying concentrations of compounds in Microsoft Excel.
# Supplementary Fig. 27. Binding of compounds 4a, (R)- and (S)-4a, and 4g-i to the HTL proteins in S. hermonthica and KAI2 protein homologs in P. aegyptiaca. In the competitive inhibitory activity assay, YLG (3 µM) was used as the fluorogenic substrate. Error bar indicates SD (n = 3 biologically independent experiments).
# (1 picture or pasted object on this page, not shown here)
row,SMILES,IC50
1,CC1=CC(OC(=O)N2CCN(C(=O)COc3ccc(Br)cc3C)CC2)CC1=O (stereo not drawn) [4g],39.2 µM

# Same assay, conditions: ShHTL6; YLG competition; Supplementary Fig. 27; read-out: IC50, replicate 1
row,SMILES,IC50
1,CC1=CC(OC(=O)N2CCN(C(=O)COc3ccc(Br)cc3C)CC2)CC1=O (stereo not drawn) [4g],53 µM

# Same assay, conditions: ShHTL6; YLG competition; Supplementary Fig. 27; read-out: IC50, replicate 2
row,SMILES,IC50
1,CC1=CC(OC(=O)N2CCN(C(=O)COc3ccc(Br)cc3C)CC2)CC1=O (stereo not drawn) [4g],37.4 µM

# Same assay, conditions: ShHTL6; YLG competition; Supplementary Fig. 27; read-out: IC50, replicate 3
row,SMILES,IC50
1,CC1=CC(OC(=O)N2CCN(C(=O)COc3ccc(Br)cc3C)CC2)CC1=O (stereo not drawn) [4g],61.5 µM

# Same assay, conditions: ShHTL6; average of 3 replicates; Supplementary Fig. 27; read-out: IC50, average
row,SMILES,IC50
1,CC1=CC(OC(=O)N2CCN(C(=O)COc3ccc(Br)cc3C)CC2)CC1=O (stereo not drawn) [4g],50.6 µM

# Same assay, conditions: ShHTL8; YLG competition; Supplementary Fig. 27; read-out: IC50, replicate 1
row,SMILES,IC50
1,CC1=CC(OC(=O)N2CCN(C(=O)COc3ccc(Br)cc3C)CC2)CC1=O (stereo not drawn) [4g],61 µM

# Same assay, conditions: ShHTL8; YLG competition; Supplementary Fig. 27; read-out: IC50, replicate 2
row,SMILES,IC50
1,CC1=CC(OC(=O)N2CCN(C(=O)COc3ccc(Br)cc3C)CC2)CC1=O (stereo not drawn) [4g],62 µM

# Same assay, conditions: ShHTL8; YLG competition; Supplementary Fig. 27; read-out: IC50, replicate 3
row,SMILES,IC50
1,CC1=CC(OC(=O)N2CCN(C(=O)COc3ccc(Br)cc3C)CC2)CC1=O (stereo not drawn) [4g],51.8 µM

# Same assay, conditions: ShHTL8; average of 3 replicates; Supplementary Fig. 27; read-out: IC50, average
row,SMILES,IC50
1,CC1=CC(OC(=O)N2CCN(C(=O)COc3ccc(Br)cc3C)CC2)CC1=O (stereo not drawn) [4g],58.3 µM

# Same assay, conditions: ShHTL9; YLG competition; Supplementary Fig. 27; read-out: IC50, replicate 1
row,SMILES,IC50
1,CC1=CC(OC(=O)N2CCN(C(=O)COc3ccc(Br)cc3C)CC2)CC1=O (stereo not drawn) [4g],31.2 µM

# Same assay, conditions: ShHTL9; YLG competition; Supplementary Fig. 27; read-out: IC50, replicate 2
row,SMILES,IC50
1,CC1=CC(OC(=O)N2CCN(C(=O)COc3ccc(Br)cc3C)CC2)CC1=O (stereo not drawn) [4g],38.7 µM

# Same assay, conditions: ShHTL9; YLG competition; Supplementary Fig. 27; read-out: IC50, replicate 3
row,SMILES,IC50
1,CC1=CC(OC(=O)N2CCN(C(=O)COc3ccc(Br)cc3C)CC2)CC1=O (stereo not drawn) [4g],46.2 µM

# Same assay, conditions: ShHTL9; average of 3 replicates; Supplementary Fig. 27; read-out: IC50, average
row,SMILES,IC50
1,CC1=CC(OC(=O)N2CCN(C(=O)COc3ccc(Br)cc3C)CC2)CC1=O (stereo not drawn) [4g],38.7 µM

# Same assay, conditions: ShHTL10; YLG competition; Supplementary Fig. 27; read-out: IC50, replicate 1
row,SMILES,IC50
1,CC1=CC(OC(=O)N2CCN(C(=O)COc3ccc(Br)cc3C)CC2)CC1=O (stereo not drawn) [4g],49.6 µM

# Same assay, conditions: ShHTL10; YLG competition; Supplementary Fig. 27; read-out: IC50, replicate 2
row,SMILES,IC50
1,CC1=CC(OC(=O)N2CCN(C(=O)COc3ccc(Br)cc3C)CC2)CC1=O (stereo not drawn) [4g],54.6 µM

# Same assay, conditions: ShHTL10; YLG competition; Supplementary Fig. 27; read-out: IC50, replicate 3
row,SMILES,IC50
1,CC1=CC(OC(=O)N2CCN(C(=O)COc3ccc(Br)cc3C)CC2)CC1=O (stereo not drawn) [4g],55.2 µM

# Same assay, conditions: ShHTL10; average of 3 replicates; Supplementary Fig. 27; read-out: IC50, average
row,SMILES,IC50
1,CC1=CC(OC(=O)N2CCN(C(=O)COc3ccc(Br)cc3C)CC2)CC1=O (stereo not drawn) [4g],53.1 µM

# Same assay, conditions: ShHTL11; YLG competition; Supplementary Fig. 27; read-out: IC50, replicate 1
row,SMILES,IC50
1,CC1=CC(OC(=O)N2CCN(C(=O)COc3ccc(Br)cc3C)CC2)CC1=O (stereo not drawn) [4g],55.9 µM

# Same assay, conditions: ShHTL11; YLG competition; Supplementary Fig. 27; read-out: IC50, replicate 2
row,SMILES,IC50
1,CC1=CC(OC(=O)N2CCN(C(=O)COc3ccc(Br)cc3C)CC2)CC1=O (stereo not drawn) [4g],54.7 µM

# Same assay, conditions: ShHTL11; YLG competition; Supplementary Fig. 27; read-out: IC50, replicate 3
row,SMILES,IC50
1,CC1=CC(OC(=O)N2CCN(C(=O)COc3ccc(Br)cc3C)CC2)CC1=O (stereo not drawn) [4g],58.2 µM

# Same assay, conditions: ShHTL11; average of 3 replicates; Supplementary Fig. 27; read-out: IC50, average
row,SMILES,IC50
1,CC1=CC(OC(=O)N2CCN(C(=O)COc3ccc(Br)cc3C)CC2)CC1=O (stereo not drawn) [4g],56.3 µM
